The text below walks through data of US20130158014A1, “METHOD FOR TREATING DISEASES ASSOCIATED WITH ALTERATIONS IN CELLULAR INTEGRITY USING RHO KINASE INHIBITOR COMPOUNDS” (priority 2008, published 2013).

One series addresses T1, p70S6K (Homo sapiens, UniProt P23443, T412E).
T1 construct: purchased Upstate Chemicon 14-486
As to the kind of experiment: p70S6K inhibition assay (IMAP). Format: biochemical. Particulars: average.

Series [1] can be described thus: Compound plasma concentrations in unsensitized mice at 15 min post administration. In kind it is in vivo, mouse. Particulars: for Mouse Oral PK: mean plasma concentration in mice, 15 minutes post oral administration; for Plasma Mean Concentration: mice, 15 min post administration, mean n = 3 mice.
Method: Test compounds were formulated in water or 1% polysorbate 80 and dosed at 15 μmmol/kg for intraperitoneal (IP) or oral (PO) administration or formulated for intratracheal (IT) administration and dosed at 5 μmmol/kg, which directly targets the lungs. Following completion of the in vivo study, mice were euthanized and blood and plasma collected approximately 2.5-3 hours post administration of test compound for bronchodialator (BD) studies and 24 hours post administration for anti-inflamatory (AI) studies. […] Both plasma samples and lung extracts were assayed for compound concentrations using an on-line, solid phase extraction LC/MS/MS system.
Series [2] in a line: Rat oral pharmacokinetics (plasma). Particulars: rat oral PK, mean n = 3 rats, 20-30 μmmol/kg. In kind it is in vivo.
Method: Plasma (EDTA K2 anticoagulant) was collected from male, cannulated, CD Sprague Dawley rats to determine the pharmacokinetics of formulations containing compound inhibitors of Rho kinase. Each animal was dosed orally with a 4 ml/kg solution or suspension of each test compound in 10 mM acetate buffered saline, pH 4.5 at a final concentration range of 20-30 μmmol/kg. Blood was collected at 0.25, 0.5, 1, 2, 4, 6, 8, and 24 hours. Plasma samples were assayed for the concentration of the test compound using an on-line, solid phase extraction LC/MS/MS analysis system.
Samples were analyzed on a QSTAR Elite, hybrid quadrupole time-of-flight mass spectrometer (Applied Biosystems, Framingham, Mass.) coupled with a Symbiosis Pharma integrated, on-line SPE-HPLC system (Spark Holland Inc., Plainsboro, N.J.). Analyst QS 2.0 software was used for instrument control, data acquisition and processing. […] Mobile Phase A consisted of 0.1% ammonium hydroxide in water and Mobile Phase B consisted of 0.1% formic acid in acetonitrile. Pharmacokinetic analyses were performed using WinNonlin software version 5.2 (Pharsight Corporation, Mountain View, Calif.).
As determined from the plasma concentration versus time curves, the time to peak and peak exposure are represented by the values Tmax and Cmax, respectively. The AUC values (nM*hr) shown were calculated as the areas under the plasma concentration versus time curves from time zero through the time of the last observable value and represent the total exposure of the compound over the course of the study. Half-life values or the amount of time required for the plasma levels of the compound to decline to half the initial value are represented as t1/2.
The test system of series [3] is ova-sensitized, ova-challenged mice. Nature of the series: Prevention of airway hyperreactivity (Penh, methacholine) in mouse ovalbumin model. Format: in vivo. Particulars: days 27 to 31; for airway hyperreactivity: intratracheal once a day. On the procedure: The anti-inflammatory dosing paradigm consists of dosing the animals once a day starting on day 27 and finishing on either day 30 or 31 (1 hr prior to the aerosolized ovalbumin challenges on days 28 to 30) but not on day 32 when hyperreactivity evaluation occurs. […] Exposure to the methacholine doses consisted of a 3 minute period during which a nebulizer was aerosolizing the methacholine and an additional 3 minute period following the cessation of nebulization. […] Enhanced pause (Penh), a unitless index of airway hyperreactivity, is derived from the expiratory side of the respiratory waveform measured via the plethysmograph and is used as an indirect measure of airway resistance and hyperreactivity. […] Following the methacholine dose response, BALF was collected and all animals were anesthetized, bled and euthanized. […] The Penh value at each of the dose levels of methacholine represents the 6-minute average response. Change from baseline (CFB) in Penh was calculated at each methacholine dose and the area under the curve (AUC) for these CFB values was calculated using the trapezoidal rule. This same approach was applied for each mouse across multiple experiments. […] Data from equal experimental conditions across experiments performed on different days were pooled for statistical analysis and data reporting. […] A random intercept for each experiment was assumed to account for possible similarities of the results obtained from a given experiment (i.e., as a “blocking effect”). […] For FIG. 9, linear AUC values from compound treated mice were reported as a percent of linear AUC values from vehicle-treated ovalbumin-sensitized/ovalbumin-challenged (asthmatic) mice.

The test system is the same in series [4]. As to the kind of experiment: Mouse ovalbumin sensitization model: eosinophils in BALF. The settings on record: dosed orally once a day, day 27 to day 31; FIG. 4. Format: in vivo. On the procedure:
Male BALB/c mice were ordered from Charles River Laboratories (Raleigh, N.C.). The animals were approximately 19 to 21 grams at time of receipt. Upon arrival, the animals were randomized into groups of five males per cage and assigned to a dosing group. Animals were quarantined for 7 days under test conditions. They were observed daily for general health status and ability to adapt to the water bottles. Animals were sensitized on day 0 and 14 of study by an intraperitoneal injection with 20 μg of ovalbumin (ova) and 2.0 mg aluminum hydroxide (alum) which initiates the development of a specific T-helper (Th) cells type 2 resulting in asthmatic animals (denoted as Ova in the figures). One group of animals received an injection of saline to use as control animals (denoted as normal in the figures). All animals were challenged with aerosolized 1% ova once daily for 25 minutes on days 28, 29, and 30 (Zosky, et al. Respiratory Research. 2004; 5:15). Aerosol challenge consists of using an Aerogen Aeroneb nebulizer and controller with a particle size of 4-6 μm mass median aerodynamic diameter (MMAD) with a distribution of 400 μl per minute. This aerosol challenge is necessary to target the Th2-driven allergic inflammation in the lower airways. […]
Bronchoalveolar lavage fluid (BALF) was collected by infusing 3.0 ml of saline with 10% fetal calf serum into the lungs via the trachea and then withdrawing the fluid. The total amount of cells/ml of BALF fluid was determined via manual cell count on hemocytometer. The BALF was centrifuged, supernatant removed and analyzed for cytokine concentrations as described below, and cell pellet reconstituted in 500 μL of fluid. […] Following Hema3 stain, relative percentages of individual leukocytes were determined on a 200 cell count for each sample. The final concentration of individual leukocyte cell types per ml of BALF was determined by multiplication of the relative percentage of individual leukocytes with the total amount of cells/ml of BALF fluid.

The target of the next series is T2, ERK2 (Homo sapiens, UniProt P28482).
T2 construct: purchased Upstate, Millipore Bioscience Division (KinaseProfiler service)
As to the kind of experiment: Kinase panel screen (KinaseProfiler): ERK2. The settings on record: 10 μM ATP, read-out: Percent inhibition ERK2; for activity at 1 µM: 1 μM test compound; for activity at 10 µM: 10 μM test compound. Format: biochemical. Here is the method:
Compounds of Formulae I and II were examined for activity against a selected panel of kinases using the KinaseProfiler™ enzyme profiling services (Upstate, Millipore Bioscience Division). Percent kinase activity at 10 μM and 1 μM test compound and 10 μM ATP was determined against 40 wild-type recombinant human kinases according to Upstate's standard protocol: ASK1, BTK, CSK, c-RAF, GCK, GSK3β, IKKα, IKKβ, IRAK1, IRAK4, JNK1α1, JNK2α2, JNK3, ERK1, ERK2, MAPKAP-K2, MAPKAP-K3, MEK1, MKK4, MKK6, MKK7β, Mnk2, MSK1, PAK3, PDK1, PRAK, ROCK1, Rsk2, SAPK2a, SAPK2b, SAPK3, SAPK4, SRPK1, SRPK2, Syk, TAK1, TBK1, PI3-Kβ, PI3-Kγ, PI3-Kδ.

Series [5] concerns A-10 rat thoracic aorta cells. As to the kind of experiment: PDGF-stimulated smooth muscle cell proliferation assay (BrdU). In kind it is cell-based. Particulars: for Proliferation at 10 μM: 10 μM test compound.
Method: Effects on cell proliferation were measured using a bromodeoxyuridine (BrdU) incorporation assay. […] Serum free media containing 0.1% BSA was added to the cells. 24 hours later the media was removed and replaced with warmed serum free media. […] Proliferation was then monitored using the BrdU Cell Proiferation Assay, HTS (Calbiochem cat. #HTS01). BrdU was allowed to incorporate into cells for 24 hours prior to the addition of fixative/denaturing solution and the fluorometric detection of incorporated BrdU using a BrdU antibody as per manufacturer's directions. Data are reported as a percent of the PDGF-stimulated BrdU incorporation.
The next series has as its target T3, Akt3 (Homo sapiens, UniProt Q9Y243).
T3 construct: purchased Upstate Chemicon 14-502
As to the kind of experiment: Akt3 inhibition assay (IMAP). Particulars: IMAP FP assay, 30 μM ATP; average. In kind it is biochemical.

For another series, the target named is T4, ROCK2 (Homo sapiens, UniProt O75116).
T4 construct: purchased Upstate/Chemicon 14-451
As to the kind of experiment: Rho kinase inhibition assay (IMAP), ROCK2. Format: biochemical. The settings on record: average.

Series [6] has as its system TNF-α secretion from LPS-stimulated human monocytes. As to the kind of experiment: Human monocyte cytokine secretion assay (LPS): TNF-α. The settings on record: average percent of stimulated secretion from human monocytes, 10 μM test compound. Format: cell-based.
Method: (§1) Peripheral blood from healthy human volunteers was collected and the monocytes isolated via Ficoll-paque density centrifugation. […] The cells were allowed to pre-incubate with test compound at the indicated concentration for 30 minutes (37° C., 5% CO2, humidified air); after which the supernatant was removed and media containing compound and 1 ng/mL LPS was added. Cells were allowed to incubate with compounds and LPS for 4 hours at 37° C. after which the supernatant was removed and stored at −80° C. Cytokine concentrations in the supernatant were determined using commercially available Bio-Rad Bio-plex™ kits according the manufacturer's instructions.
Series [7] relates to IL-1β secretion from LPS-stimulated human monocytes. Nature of the series: Human monocyte cytokine secretion assay (LPS): IL-1β. Format: cell-based. The settings on record: average percent of stimulated secretion from human monocytes, 10 μM test compound.
Method: as §1
The subject of series [8] is IL-6 secretion from LPS-stimulated human monocytes. Nature of the series: Human monocyte cytokine secretion assay (LPS): IL-6. Particulars: average percent of stimulated secretion from human monocytes, 10 μM test compound. In kind it is cell-based.
Method: as §1
The next series concerns LPS-challenged mice. As to the kind of experiment: LPS-induced cytokine production assay (IL-1β in BALF). The settings on record: intratracheal, one hour prior to LPS challenge; BALF four hours after; FIG. 13. In kind it is in vivo, mouse. Here is the method: Male BALB/c mice, approximately 19 to 21 grams, were ordered from Charles River Laboratories (Raleigh, N.C.). All animals were challenged with aerosolized LPS (10 μg/ml) for 25 minutes on study day 0. LPS aerosol was generated using an Aerogen Aeroneb nebulizer and controller providing a flow of 400 μl/min and a particle size of 2-4 μm MMAD. Rolipram was administered i.p at 20 mg/kg. […] Total cell counts were determined using the Coulter Counter. For differential evaluations, BALF was centrifuged and cytospin slides prepared and stained […]. Manual leukocyte counts were then completed on 200 cells. The final concentration of individual leukocyte cell types per ml of BALF was determined by multiplication of the relative percentage of individual leukocytes with the total amount of cells/ml of BALF fluid. The concentration of IL-1β in the BALF samples was determined using commercially available Bio-plex kits (Bio-Rad).

Setting [9] is: IMAP FP assay, 30 μM ATP, read-out: p70S6K Ki, Avg.
Where [10] appears, read: average percent of PDGF stimulated proliferation.
Where [11] appears, read: IMAP assay, 10 μM ATP, read-out: ROCK2 Ki, Avg.

Structures are written as SMILES. Read-outs that look alike come from different tables or passages of the source.

T1 sequence (P23443 1-421 T412E limits assumed): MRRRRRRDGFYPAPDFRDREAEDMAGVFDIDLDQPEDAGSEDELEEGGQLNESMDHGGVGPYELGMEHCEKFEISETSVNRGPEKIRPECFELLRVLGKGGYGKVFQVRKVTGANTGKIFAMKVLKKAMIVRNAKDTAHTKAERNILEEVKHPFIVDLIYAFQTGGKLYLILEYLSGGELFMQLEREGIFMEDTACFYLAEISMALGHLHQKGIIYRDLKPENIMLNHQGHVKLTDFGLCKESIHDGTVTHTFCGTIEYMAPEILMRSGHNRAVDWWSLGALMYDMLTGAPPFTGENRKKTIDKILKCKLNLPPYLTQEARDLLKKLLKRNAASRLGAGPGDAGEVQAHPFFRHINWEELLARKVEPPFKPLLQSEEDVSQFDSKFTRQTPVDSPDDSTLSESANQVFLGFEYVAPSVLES
T2 sequence (P28482 whole entry): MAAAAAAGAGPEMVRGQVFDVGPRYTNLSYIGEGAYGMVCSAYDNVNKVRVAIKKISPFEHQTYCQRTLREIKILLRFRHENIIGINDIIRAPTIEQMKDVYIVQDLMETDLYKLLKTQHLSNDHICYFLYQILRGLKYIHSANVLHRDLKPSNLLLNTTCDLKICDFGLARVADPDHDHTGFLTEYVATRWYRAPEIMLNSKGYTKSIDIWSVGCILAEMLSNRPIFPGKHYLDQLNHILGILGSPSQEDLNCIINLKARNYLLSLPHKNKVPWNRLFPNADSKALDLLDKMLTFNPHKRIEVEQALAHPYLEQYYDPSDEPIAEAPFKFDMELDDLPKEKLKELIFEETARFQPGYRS
T4 sequence (O75116 11-552 limits assumed): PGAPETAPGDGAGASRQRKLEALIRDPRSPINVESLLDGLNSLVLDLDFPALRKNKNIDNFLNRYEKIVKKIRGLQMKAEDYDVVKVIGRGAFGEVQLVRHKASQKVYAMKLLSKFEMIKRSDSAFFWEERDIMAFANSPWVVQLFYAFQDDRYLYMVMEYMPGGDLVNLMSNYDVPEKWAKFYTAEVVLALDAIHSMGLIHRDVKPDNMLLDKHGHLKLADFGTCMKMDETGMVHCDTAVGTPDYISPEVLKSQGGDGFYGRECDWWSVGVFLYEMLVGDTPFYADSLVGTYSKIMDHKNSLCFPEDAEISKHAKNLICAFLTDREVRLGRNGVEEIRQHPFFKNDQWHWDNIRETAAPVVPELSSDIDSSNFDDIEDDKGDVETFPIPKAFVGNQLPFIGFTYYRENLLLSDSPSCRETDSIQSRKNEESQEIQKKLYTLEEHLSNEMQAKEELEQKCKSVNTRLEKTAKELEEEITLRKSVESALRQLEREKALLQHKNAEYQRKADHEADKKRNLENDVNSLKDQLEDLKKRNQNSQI
T3 sequence (Q9Y243 whole entry): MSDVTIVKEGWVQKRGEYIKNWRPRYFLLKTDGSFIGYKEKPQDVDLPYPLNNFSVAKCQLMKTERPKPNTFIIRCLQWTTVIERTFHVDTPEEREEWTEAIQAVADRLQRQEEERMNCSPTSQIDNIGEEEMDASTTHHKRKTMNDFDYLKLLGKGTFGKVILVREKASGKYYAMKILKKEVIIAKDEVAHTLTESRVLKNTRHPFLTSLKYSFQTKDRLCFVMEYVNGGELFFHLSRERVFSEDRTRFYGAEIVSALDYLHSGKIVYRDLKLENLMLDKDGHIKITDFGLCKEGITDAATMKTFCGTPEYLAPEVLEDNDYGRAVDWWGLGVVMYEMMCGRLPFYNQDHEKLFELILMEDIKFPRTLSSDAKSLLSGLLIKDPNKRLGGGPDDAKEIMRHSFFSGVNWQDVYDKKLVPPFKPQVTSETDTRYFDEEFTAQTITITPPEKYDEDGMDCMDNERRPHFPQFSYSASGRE
Method for Akt3: (§2) Inhibition of Akt3 and p70S6K activity was determined using the IMAP™ FP Progressive Binding Kit (Molecular Devices product number R8127). […] Following the pre-incubation, 30 μM ATP was added to initiate the reaction. After 60 minutes at RT, Molecular Devices IMAP™ binding solution was added to bind phosphorylated substrate. After 30 minutes of incubation in the presence of the IMAP™ beads the fluorescence polarization was read and the ratio was reported as mP. IC50 results were calculated using the Prism software from Graphpad. The Ki values were determined according to the following formula: Ki=IC50/(1+([ATP Challenge]/EC50 ATP)).
Method for ROCK2: Following the pre-incubation, 10 μM ATP was added to initiate the reaction. After 60 minutes at room temperature, Molecular Devices IMAP™ binding solution was added to bind phosphorylated substrate. After 30 minutes of incubation in the presence of the IMAP™ beads, the fluorescence polarization was read and the ratio was reported as mP. IC50 values for compounds and EC50 values for ATP were calculated using the Prism software from Graphpad.
Method for p70S6K: as §2

As for `COc1ccc(CN2CCC[C@H](Nc3ccc4[nH]ncc4c3)C2)cc1` [Compound 1.079], at p70S6K (setting [9]), the Ki (usually the dissociation constant of the complex between target and ligand, obtained from inhibition or displacement) was found to be 3010 nM. For the same molecule, the Ki on p70S6K (read-out: p70S6K Ki) was 3010 nM. Also, in [1], the “Mouse Oral PK” value is 2443 nM and the “Plasma Mean Concentration” value is 2442.5 nM.

In the case of `OCCOc1cccc(CN2CCC[C@@H](Nc3ccc4[nH]ncc4c3)C2)c1` [Compound 1.092], in [2], the Vz_F is listed as 19.0 L/kg.

For `c1cc2cc(CN3CCC[C@@H](Nc4ccc5[nH]ncc5c4)C3)ccc2o1` [Compound 1.131], the “airway hyperreactivity to methacholine on Day 32” value in [3] (oral 15 μMol/kg once a day) is “prevention of airway hyperreactivity”. The “eosinophils per ml of BALF” value in series [4] is “reduced”.

Regarding `CCc1ccc(CN2CCC[C@@H](Nc3ccc4[nH]ncc4c3)C2)cc1` [Compound 1.136], in series [2], the “AUC (0-last)” value is “BLQ”, the Cmax entry was “BLQ”, the Tmax entry is listed as “BLQ” and the Vz_F result is given as “BLQ”. Besides, in [2], the t½ entry was “BLQ”.

With `Cc1ccc(CN2CCC[C@@H](Nc3ccc4[nH]ncc4c3)C2)cc1OCCO` [Compound 1.161], in [3], the airway hyperreactivity result is “prevention of airway hyperreactivity”. Moreover, at ERK2, the activity at 1 µM was 104% and the activity at 10 µM stood at 92%.

With `NC(=O)COc1cccc(CN2CCC[C@H](Nc3ccc4[nH]ncc4c3)C2)c1` [Compound 1.195], at p70S6K (setting [9]), the Ki worked out at 2730 nM. The Ki at p70S6K (read-out: p70S6K Ki) came to 2730 nM. Moreover, in series [1], the “Mouse Oral PK” value was found to be 108 nM and the “Plasma Mean Concentration” value is 107.9 nM.

For the molecule `Cc1ccc(CN2CCC[C@H](Nc3ccc4[nH]ncc4c3)C2)cc1NS(=O)(=O)N(C)C` [Compound 1.237], the “Percent of PDGF Induced Proliferation at 1 μM Avg” value in series [5] (1 μM, 10 ng/mL PDGF) is reported as 63.5%. In series [5] (10 μM, 10 ng/mL PDGF), the “Percent of PDGF Induced Proliferation at 10 μM Avg” value is reported as 51.4%. Further, in series [5] (average percent of PDGF stimulated proliferation, 1 μM test compound), the “Proliferation at 1 μM” value came to 63.5%. Besides, the “Proliferation at 10 μM” value in series [5] (setting [10]) stood at 51.4%. Besides, the figures for the Ki at Akt3, on ROCK2 (setting [11]) and at ROCK2 (read-out: ROCK2 Ki) were 7910 nM, 4 nM and 4 nM, respectively. In [6], this molecule registered a TNF-α of 70.6%. In addition, the IL-1β in [7] is given as 97.1%. This molecule had an IL-6 in [8] of 100.9%.

For the molecule `Cc1ccc(CN2CCC[C@@H](Nc3ccc4[nH]ncc4c3)C2)cc1NS(=O)(=O)N(C)C` [Compound 1.262], the Ki on Akt3 was 861 nM; at ROCK2 (setting [11]), 4 nM; at ROCK2 (read-out: ROCK2 Ki), 4 nM. In series [6], this molecule returned a TNF-α of 135.3%. The molecule also came in with an IL-1β in [7] of 145.7%. Moreover, in series [8], the IL-6 amounted to 156.6%.

With `CSc1ccc(CN2CC[C@@H](Nc3cccc4cnccc34)C2)cc1` [Compound 2.026], in [2], the “AUC (0-last)” value is reported as “BLQ”, the Cmax result was “BLQ”, the Tmax result is on record as “BLQ” and the Vz_F result was “BLQ”. Further, the t½ result in series [2] is reported as “BLQ”. For the same molecule, the “Proliferation at 10 μM” value in series [5] (setting [10]) was determined as 52.0%.

For `NC(=O)Cn1ccc2cc(CN3CC[C@@H](Nc4cccc5cnccc45)C3)ccc21` [Compound 2.059], the airway hyperreactivity entry in series [3] is recorded as “prevention of airway hyperreactivity”. Also, at ERK2, the activity at 1 µM came to 56% and the activity at 10 µM amounted to 12%. Besides, the “IL-1β in BALF” value in the series on LPS-challenged mice is given as “reduction”.

With `OCCn1ccc2cc(CN3CC[C@@H](Nc4cccc5cnccc45)C3)ccc21` [Compound 2.066], in series [3], the airway hyperreactivity result is “prevention of airway hyperreactivity”. For the same molecule, at ERK2, the activity at 10 µM was 12%.
